“And” between values parts separate entries of the source, which are not always exact repeats. Equal entries are not always repeated. Toxic doses and inconclusive results are not listed. How the source made its calls: active means survival T/C of 150% or more; inactive means T/C below 125% in these data. Non-standard residues stand in square brackets, D forms with d. Residues, ends and D or L forms follow the SMILES beside them. *: point of attachment. Cbz = O=C(OCc1ccccc1)*; Nva = CCC[CH](N)C(=O)O
System: CD2F1 mice, L1210 leukemia ip, survival T/C
Assay: NCI In Vivo Anticancer Drug Screen. Data for tumor model L1210 Leukemia (intraperitoneal) in CD2F1 (CDF1) mice
Conditions: higher = longer survival
Outline: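 Tumor-bearing mice (transplanted tumor) were split into treated and vehicle control groups, and the measured endpoint of each treated group was divided by that of its vehicle controls.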

[1] = endpoint: mean survival time, dose: 50.0 mg/kg/injection, schedule: Q04DX002 (ip), vehicle: saline with Tween-80
[2] = endpoint: mean survival time, dose: 100.0 mg/kg/injection, schedule: Q04DX002 (ip), vehicle: saline with Tween-80
[3] = endpoint: mean survival time, dose: 200.0 mg/kg/injection, schedule: Q04DX002 (ip), vehicle: saline with Tween-80
[4] = endpoint: mean survival time, dose: 400.0 mg/kg/injection, schedule: Q04DX002 (ip), vehicle: saline with Tween-80
[5] = endpoint: mean survival time, dose: 100.0 mg/kg/injection, schedule: Q01DX009 (ip), vehicle: saline with Tween-80
[6] = endpoint: mean survival time, dose: 200.0 mg/kg/injection, schedule: Q01DX009 (ip), vehicle: saline with Tween-80
[7] = endpoint: mean survival time, dose: 400.0 mg/kg/injection, schedule: Q01DX009 (ip), vehicle: saline with Tween-80
[8] = endpoint: mean survival time, dose: 25.0 mg/kg/injection, schedule: Q01DX009 (ip), vehicle: saline with Tween-80
[9] = endpoint: mean survival time, dose: 50.0 mg/kg/injection, schedule: Q01DX009 (ip), vehicle: saline with Tween-80
[10] = endpoint: mean survival time, dose: 100.0 mg/kg/injection, schedule: Q01DX001 (ip), vehicle: saline with Tween-80
[11] = endpoint: mean survival time, dose: 100.0 mg/kg/injection, schedule: Q04DX003 (ip), vehicle: saline with Tween-80
[12] = endpoint: mean survival time, dose: 200.0 mg/kg/injection, schedule: Q04DX003 (ip), vehicle: saline with Tween-80
[13] = endpoint: mean survival time, dose: 400.0 mg/kg/injection, schedule: Q04DX003 (ip), vehicle: saline with Tween-80

Measured: T/C

CSc1ncnc2nn(C3OC(COC(=O)c4ccccc4)C(OC(=O)c4ccccc4)C3OC(=O)c3ccccc3)nc12 (stereo not drawn)
inactive: endpoint: median survival time, dose: 12.5 mg/kg/injection, schedule: Q01DX005 (ip), vehicle: Klucel (hydroxypropylcellulose) (HPC) 94 % of control | endpoint: median survival time, dose: 25.0 mg/kg/injection, schedule: Q01DX005 (ip), vehicle: Klucel (hydroxypropylcellulose) (HPC) 86 % of control | endpoint: median survival time, dose: 50.0 mg/kg/injection, schedule: Q01DX005 (ip), vehicle: Klucel (hydroxypropylcellulose) (HPC) 87 % of control | endpoint: median survival time, dose: 100.0 mg/kg/injection, schedule: Q01DX005 (ip), vehicle: Klucel (hydroxypropylcellulose) (HPC) 93 % of control and 95 % of control | endpoint: median survival time, dose: 200.0 mg/kg/injection, schedule: Q01DX005 (ip), vehicle: Klucel (hydroxypropylcellulose) (HPC) 89 % of control and 95 % of control | endpoint: median survival time, dose: 400.0 mg/kg/injection, schedule: Q01DX005 (ip), vehicle: Klucel (hydroxypropylcellulose) (HPC) 95 % of control

O=c1[nH]c2ccccc2nc1Cl
inactive: endpoint: mean survival time, dose: 25.0 mg/kg/injection, schedule: Q04DX002 (ip), vehicle: saline with Tween-80 94 % of control | [1] 94 % of control | [2] 94 % of control | [3] 90 % of control | [4] 90 % of control

CC1(C)CC(=O)C2(CNC3=C(CCC(C)(C)C3)C2)C(=O)C1
inactive: [1] 91 % of control | [2] 91 % of control | [3] 100 % of control | [4] 91 % of control

CCCC(NC(=O)C(C)NC(=O)OCc1ccccc1)C(N)=O (stereo not drawn) (Cbz-Ala-[Nva]-NH2; configuration not given here)
inactive: [5] 90 % of control | [6] 92 % of control | [7] 92 % of control

COCC(OC)C(OC)C(OC)C(C=O)OC (stereo not drawn)
inactive: endpoint: mean survival time, dose: 50.0 mg/kg/injection, schedule: Q01DX001 (ip), vehicle: Klucel (hydroxypropylcellulose) (HPC) 99 % of control | endpoint: mean survival time, dose: 100.0 mg/kg/injection, schedule: Q01DX001 (ip), vehicle: Klucel (hydroxypropylcellulose) (HPC) 99 % of control | endpoint: mean survival time, dose: 200.0 mg/kg/injection, schedule: Q01DX001 (ip), vehicle: Klucel (hydroxypropylcellulose) (HPC) 105 % of control

O=[N+]([O-])c1cccc(S(=O)(=O)N2CCCCC2)c1
inactive: [1] 95 % of control | [2] 87 % of control | [3] 95 % of control | [4] 91 % of control

[B-][N+]1(C)CC[N+]([B-])(C)CC1 (stereo not drawn)
inactive: endpoint: mean survival time, dose: 5.0 mg/kg/injection, schedule: Q01DX009 (ip), vehicle: saline with Tween-80 104 % of control | endpoint: mean survival time, dose: 5.0 mg/kg/injection, schedule: Q04DX003 (ip), vehicle: saline 103 % of control | endpoint: mean survival time, dose: 10.0 mg/kg/injection, schedule: Q01DX009 (ip), vehicle: saline with Tween-80 96 % of control | endpoint: mean survival time, dose: 10.0 mg/kg/injection, schedule: Q04DX003 (ip), vehicle: saline 98 % of control | endpoint: mean survival time, dose: 20.0 mg/kg/injection, schedule: Q04DX003 (ip), vehicle: saline 98 % of control

CCCCN1C(=O)C(=O)N(c2cc(C)c(C)cc2C)C1=O
inactive: endpoint: mean survival time, dose: 12.5 mg/kg/injection, schedule: Q01DX009 (ip), vehicle: saline with Tween-80 100 % of control | [8] 96 % of control | [9] 92 % of control | [5] 90 % of control

O=C(O)c1nccc2c([N+](=O)[O-])cccc12
inactive: endpoint: mean survival time, dose: 100.0 mg/kg/injection, schedule: Q01DX009 (ip), vehicle: acetone 95 % of control | endpoint: mean survival time, dose: 200.0 mg/kg/injection, schedule: Q01DX009 (ip), vehicle: acetone 95 % of control | endpoint: mean survival time, dose: 400.0 mg/kg/injection, schedule: Q01DX009 (ip), vehicle: acetone 98 % of control

COc1ccc(COC(=O)Oc2ccccc2)cc1OC
inactive: [2] 93 % of control | [3] 101 % of control | [4] 96 % of control

[CH-]=C([CH2-])C.[Ni][Br].c1ccc([PH+](c2ccccc2)c2ccccc2)cc1
inactive: endpoint: mean survival time, dose: 25.0 mg/kg/injection, schedule: Q01DX001 (ip), vehicle: saline with Tween-80 101 % of control | endpoint: mean survival time, dose: 50.0 mg/kg/injection, schedule: Q01DX001 (ip), vehicle: saline with Tween-80 101 % of control | [10] 108 % of control

CN(C)CC1CCCC12OCCO2 (stereo not drawn)
inactive: endpoint: mean survival time, dose: 75.0 mg/kg/injection, schedule: Q01DX001 (ip), vehicle: other 100 % of control | endpoint: mean survival time, dose: 150.0 mg/kg/injection, schedule: Q01DX001 (ip), vehicle: other 96 % of control | endpoint: mean survival time, dose: 300.0 mg/kg/injection, schedule: Q01DX001 (ip), vehicle: other 106 % of control

C=C1CC2CCC1C2 (stereo not drawn)
inactive: [5] 96 % of control | [11] 104 % of control | [12] 98 % of control | [13] 98 % of control

CCCN(CCC)c1ccc(C#N)cc1
inactive: endpoint: mean survival time, dose: 100.0 mg/kg/injection, schedule: Q04DX003 (ip), vehicle: Klucel (hydroxypropylcellulose) (HPC) 91 % of control | endpoint: mean survival time, dose: 200.0 mg/kg/injection, schedule: Q04DX003 (ip), vehicle: Klucel (hydroxypropylcellulose) (HPC) 92 % of control | endpoint: mean survival time, dose: 400.0 mg/kg/injection, schedule: Q04DX003 (ip), vehicle: Klucel (hydroxypropylcellulose) (HPC) 95 % of control

O=C(N/N=C\c1cc(Br)cc(Br)c1O)N/N=C/c1cc(Br)cc(Br)c1O
inactive: [8] 117 % of control | [9] 104 % of control and 111 % of control | [5] 116 % of control and 122 % of control | [6] 118 % of control and 94 % of control | [7] 116 % of control and 88 % of control

CCCCOP(=O)(OCCCC)C(CCC)OP(OC(CCC)P(=O)(OCCCC)OCCCC)OC(CCC)P(=O)(OCCCC)OCCCC (stereo not drawn)
inactive: endpoint: mean survival time, dose: 100.0 mg/kg/injection, schedule: Q04DX002 (ip), vehicle: saline 103 % of control | endpoint: mean survival time, dose: 200.0 mg/kg/injection, schedule: Q04DX002 (ip), vehicle: saline 89 % of control | endpoint: mean survival time, dose: 400.0 mg/kg/injection, schedule: Q04DX002 (ip), vehicle: saline 97 % of control

O=C1C(Cl)=C(c2ccccc2)C(=O)C(Cl)=C1c1ccccc1
inactive: endpoint: mean survival time, dose: 50.0 mg/kg/injection, schedule: Q04DX003 (ip), vehicle: saline with Tween-80 103 % of control | [11] 109 % of control | [12] 107 % of control

CCCCCCCCCCCCCCCCC1CCC2CCCCC12 (stereo not drawn)
inactive: [10] 104 % of control | endpoint: mean survival time, dose: 200.0 mg/kg/injection, schedule: Q01DX001 (ip), vehicle: saline with Tween-80 107 % of control | endpoint: mean survival time, dose: 400.0 mg/kg/injection, schedule: Q01DX001 (ip), vehicle: saline with Tween-80 97 % of control

CC(C)N1CCSC1=S
inactive: endpoint: mean survival time, dose: 25.0 mg/kg/injection, schedule: Q01DX009 (ip), vehicle: saline sonified 101 % of control | endpoint: mean survival time, dose: 50.0 mg/kg/injection, schedule: Q01DX009 (ip), vehicle: saline sonified 98 % of control | endpoint: mean survival time, dose: 100.0 mg/kg/injection, schedule: Q01DX009 (ip), vehicle: saline sonified 106 % of control | [11] 100 % of control | endpoint: mean survival time, dose: 200.0 mg/kg/injection, schedule: Q01DX009 (ip), vehicle: saline sonified 88 % of control | [12] 99 % of control | [13] 97 % of control

Clc1ccc(OCCOc2ccc(Cl)cc2Cl)c(Cl)c1
inactive: [11] 95 % of control | [12] 106 % of control | [13] 100 % of control

CN(Cc1ccc[n+](Cc2ccc(S(=O)(=O)F)cc2)c1)C(=O)COc1ccc(Cl)c(Cl)c1
inactive: [11] 98 % of control | [12] 96 % of control

CN(C)Cc1cccc2ccccc12
inactive: endpoint: mean survival time, dose: 12.5 mg/kg/injection, schedule: Q01DX009 (ip), vehicle: Klucel (hydroxypropylcellulose) (HPC) 109 % of control | endpoint: mean survival time, dose: 25.0 mg/kg/injection, schedule: Q01DX009 (ip), vehicle: Klucel (hydroxypropylcellulose) (HPC) 109 % of control | endpoint: mean survival time, dose: 50.0 mg/kg/injection, schedule: Q01DX009 (ip), vehicle: Klucel (hydroxypropylcellulose) (HPC) 97 % of control

ClC1C2c3ccccc3C(C1Cl)[n+]1ccccc12 (stereo not drawn)
inactive: endpoint: mean survival time, dose: 12.5 mg/kg/injection, schedule: Q04DX003 (ip), vehicle: Klucel (hydroxypropylcellulose) (HPC) 93 % of control | endpoint: mean survival time, dose: 25.0 mg/kg/injection, schedule: Q04DX003 (ip), vehicle: Klucel (hydroxypropylcellulose) (HPC) 98 % of control

CC1(C(=O)O)OC12CCCCC2 (stereo not drawn)
inactive: [5] 107 % of control | [6] 108 % of control | [7] 108 % of control

O=C(O)CCC(=O)CCC(=O)c1ccc2ccccc2c1
inactive: endpoint: mean survival time, dose: 100.0 mg/kg/injection, schedule: Q01DX001 (ip), vehicle: saline 98 % of control | endpoint: mean survival time, dose: 200.0 mg/kg/injection, schedule: Q01DX001 (ip), vehicle: saline 98 % of control | endpoint: mean survival time, dose: 400.0 mg/kg/injection, schedule: Q01DX001 (ip), vehicle: saline 95 % of control

O=NN(CS(=O)(=O)O)c1ccccc1
inactive: endpoint: mean survival time, dose: 50.0 mg/kg/injection, schedule: Q01DX009 (ip), vehicle: saline 101 % of control | endpoint: mean survival time, dose: 100.0 mg/kg/injection, schedule: Q01DX009 (ip), vehicle: saline 107 % of control | endpoint: mean survival time, dose: 200.0 mg/kg/injection, schedule: Q01DX009 (ip), vehicle: saline 95 % of control

From PubChem BioAssay AID256 (DTP/NCI, 2004)
